# In US20230255987A1, “AQUEOUS PHARMACEUTICAL COMPOSITION COMPRISING A P2Y12 RECEPTOR ANTAGONIST” (Idorsia Pharmaceuticals Ltd, priority 2020, published 2023):
# Columns and labels:
# [1] = Stability of COMPOUND in aqueous solution at different pH values in the absence of a buffer (HPLC); type: physicochemical
# Protocol: For instance, a solution of COMPOUND (32 mg/mL) in water at pH 7 (adjusted with aqueous NaOH solution) contained only 33.5% COMPOUND, but 65.2% (R)-2-(6-((S)-3-methoxypyrrolidin-1-yl)-2-phenylpyrimidine-4-carboxamido)-3-phosphonopropanoic acid (hereinafter DEGRADATION COMPOUND) if stored at 60° C. for 1 week (98.6% COMPOUND at t=0, i.e. immediately after preparation of the solution). The amount of DEGRADATION COMPOUND dropped to 24.4% and 10.0% for corresponding aqueous solutions stored under the same conditions but adjusted to pH 8.0 and 9.0, respectively.
# (§1) Sample Preparation for High Performance Liquid Chromatography and Method Used • 20 μL of the respective aqueous pharmaceutical composition was filled into a HPLC vial. • 980 μL water was added (dilution factor 50) prior HPLC analysis. • HPLC-UV method used: • HPLC system: High pressure mixing Shimadzu Nexera X2 • Flow: 1.5 mL/min • Column temperature: 50° C. • Autosampler temperature: 25° C. • Injection volume: 1 μL • Column: Phenomenex Gemini 5.0 μm 110 Å, 50×2.0 mm (n° 184) • Wavelength: DAD+250 nm • Solvent A: tris(hydroxymethyl)aminomethane buffer 50 mM pH 9 (adjusted with HCl)+5% (v/v) acetonitrile • Solvent B: Acetonitrile+5% (v/v) tris(hydroxymethyl)aminomethane buffer 50 mM pH 9 (adjusted with HCl) • Gradient: […]
# Aqueous formulations containing 32 mg/mL (52 mM) COMPOUND were titrated to pH 7.0, 8.0, and 9.0 using aqueous 1N NaOH solution.
# The different formulations were filled into 1 mL sterile, pre-fillable glass syringes after sterile filtration. Samples were analyzed at t=0 and after 1-week storage at 60° C.
# [2] = Stability of COMPOUND in aqueous solution at pH 9.0 with boric acid buffer at different buffer concentrations, 75° C.; type: physicochemical
# Protocol: as §1
# Stability of COMPOUND in aqueous solution at pH 9.0 in the presence of boric acid buffer at different buffer concentrations
# Formulation compositions assessing the impact of buffer capacity on formulation stability
# [3] = Long-term stability of COMPOUND in 60 mM arginine buffer under different storage conditions (UPLC); type: physicochemical
# Protocol: In a 10 L glass reactor, L-arginine (104 g, 0.60 mol) was added under stirring to water for injection (7.01 kg). COMPOUND hydrochloride (339 g, 0.52 mol) was added portion wise to the solution and the pH value was adjusted to pH=9.0 by addition of 1.0 M aqueous NaOH solution (1.18 kg). Water for injection was added to a total weight of the solution of 10.15 kg.
# For stability testing the test samples were prepared by filling 0.54 mL of the above solution into prefillable 1 mL glass syringes with stacked in needle and stored under the conditions given in table 14 and 15. The samples were analysed after the given timepoints by ultra-performance liquid chromatography (UPLC) using the following conditions: • Equipment: • UPLC system, with data acquisition system and UV detection
# Mobile phase A: Weigh 3.08 g of ammonium acetate and 3.26 g of ammonium hexafluorophosphate in a 2 L bottle. Dissolve in 1900 mL H2O. Add 100 mL of acetonitrile.
# Mobile phase B: Weigh 0.77 g of ammonium acetate in a 1 L bottle. Dissolve in 50 mL H2O. Add 950 mL of acetonitrile.
# Diluent: Mix 920 mL of Mobile Phase A with 80 mL Mobile phase B.
# Reference standard solution: 0.32 mg/mL of COMPOUND reference standard in diluent.
# Sample solution: The samples were diluted to 0.32 mg/mL of COMPOUND (based on amount of COMPOUND in the initial solution) with diluent
# Column: 100 mm×3.0 mm, 3 μm C18 column (e.g. YMC Triart C18 ExRS)
# Detection wavelength: 246 nm
# [4] = pH shift of unbuffered, pH-adjusted aqueous solution of COMPOUND on storage; type: physicochemical; details: initial pH 9.0, 2 days at 70° C.
# [5] = test system: platelet aggregation; details: 15 minutes after subcutaneous administration, doses of 8 mg, 16 mg and 32 mg; cited from earlier work
# [6] = test system: platelet; details: patients with AMI, cited from earlier work
# [7] = rat, at equivalent antithrombotic efficacy, versus ticagrelor; cited from earlier work
smiles,measurement,setting,value
"CCCCOC(=O)N1CCN(C(=O)[C@H](CP(=O)(O)O)NC(=O)c2cc(N3CC[C@H](OC)C3)nc(-c3ccccc3)n2)CC1 [COMPOUND, 4-((R)-2-{[6-((S)-3-methoxy-pyrrolidin-1-yl)-2-phenyl-pyrimidine-4-carbonyl]-amino}-3-phosphono-propionyl)-piperazine-1-carboxylic acid butyl ester]",Content of COMPOUND,"[1]; 32 mg/mL in water, pH 7 (NaOH), 60° C. for 1 week",33.5%
same,Content of COMPOUND,"[1]; 32 mg/mL in water, pH 7 (NaOH), t=0",98.6%
same,Content of COMPOUND,"[1]; no buffer, pH 7.0, t = 0",98.55 Area %
same,Content of COMPOUND,"[1]; no buffer, pH 7.0, t = 1 week at 60° C.",33.5 Area %
same,Content of COMPOUND,"[1]; no buffer, pH 8.0, t = 0",98.65 Area %
same,Content of COMPOUND,"[1]; no buffer, pH 8.0, t = 1 week at 60° C.",74.7 Area %
same,Content of COMPOUND,"[1]; no buffer, pH 9.0, t = 0",98.60 Area %
same,Content of COMPOUND,"[1]; no buffer, pH 9.0, t = 1 week at 60° C.",88.7 Area %
same,Content of COMPOUND,"[2]; 0 mM B(OH)3, pH 9.0, 75° C., 0 h",100.00 Area %
same,Content of COMPOUND,"[2]; 0 mM B(OH)3, pH 9.0, 75° C., 24 h",96.16 Area %
same,Content of COMPOUND,"[2]; 0 mM B(OH)3, pH 9.0, 75° C., 48 h",89.46 Area %
same,Content of COMPOUND,"[2]; 0 mM B(OH)3, pH 9.0, 75° C., 120 h",64.89 Area %
same,Content of COMPOUND,"[2]; 0 mM B(OH)3, pH 9.0, 75° C., 168 h",49.45 Area %
same,Content of COMPOUND,"[2]; 20 mM B(OH)3, pH 9.0, 75° C., 0 h",100.00 Area %
same,Content of COMPOUND,"[2]; 20 mM B(OH)3, pH 9.0, 75° C., 24 h",94.61 Area %
same,Content of COMPOUND,"[2]; 20 mM B(OH)3, pH 9.0, 75° C., 48 h",90.72 Area %
same,Content of COMPOUND,"[2]; 20 mM B(OH)3, pH 9.0, 75° C., 120 h",74.84 Area %
same,Content of COMPOUND,"[2]; 20 mM B(OH)3, pH 9.0, 75° C., 168 h",62.18 Area %
same,Content of COMPOUND,"[2]; 60 mM B(OH)3, pH 9.0, 75° C., 0 h",100.00 Area %
same,Content of COMPOUND,"[2]; 60 mM B(OH)3, pH 9.0, 75° C., 24 h",96.60 Area %
same,Content of COMPOUND,"[2]; 60 mM B(OH)3, pH 9.0, 75° C., 48 h",90.21 Area %
same,Content of COMPOUND,"[2]; 60 mM B(OH)3, pH 9.0, 75° C., 120 h",78.47 Area %
same,Content of COMPOUND,"[2]; 60 mM B(OH)3, pH 9.0, 75° C., 168 h",68.96 Area %
same,Content of COMPOUND,"[2]; 100 mM B(OH)3, pH 9.0, 75° C., 0 h",100.00 Area %
same,Content of COMPOUND,"[2]; 100 mM B(OH)3, pH 9.0, 75° C., 24 h",97.89 Area %
same,Content of COMPOUND,"[2]; 100 mM B(OH)3, pH 9.0, 75° C., 48 h",93.78 Area %
same,Content of COMPOUND,"[2]; 100 mM B(OH)3, pH 9.0, 75° C., 120 h",77.85 Area %
same,Content of COMPOUND,"[2]; 100 mM B(OH)3, pH 9.0, 75° C., 168 h",71.33 Area %
same,Amount of COMPOUND in the test samples,"[3]; 5° C., 1 month",16.9 mg
same,Amount of COMPOUND in the test samples,"[3]; 5° C., 3 months",16.8 mg
same,Amount of COMPOUND in the test samples,"[3]; 5° C., 6 months",16.6 mg
same,Amount of COMPOUND in the test samples,"[3]; 5° C., initial",16.9 mg
same,Amount of COMPOUND in the test samples,"[3]; 25° C./60% RH, 1 month",16.8 mg
same,Amount of COMPOUND in the test samples,"[3]; 25° C./60% RH, 3 months",16.4 mg
same,Amount of COMPOUND in the test samples,"[3]; 25° C./60% RH, 6 months",16.2 mg
same,Amount of COMPOUND in the test samples,"[3]; 25° C./60% RH, 12 months",15.9 mg
same,Amount of COMPOUND in the test samples,"[3]; 25° C./60% RH, initial",16.9 mg
same,Amount of COMPOUND in the test samples,"[3]; 30° C./75% RH, 1 month",16.7 mg
same,Amount of COMPOUND in the test samples,"[3]; 30° C./75% RH, 3 months",16.2 mg
same,Amount of COMPOUND in the test samples,"[3]; 30° C./75% RH, 6 months",15.9 mg
same,Amount of COMPOUND in the test samples,"[3]; 30° C./75% RH, 12 months",15.2 mg
same,Amount of COMPOUND in the test samples,"[3]; 30° C./75% RH, initial",16.9 mg
same,Amount of COMPOUND in the test samples,"[3]; 40° C./75% RH, 1 month",16.2 mg
same,Amount of COMPOUND in the test samples,"[3]; 40° C./75% RH, 3 months",15.1 mg
same,Amount of COMPOUND in the test samples,"[3]; 40° C./75% RH, 6 months",13.3 mg
same,Amount of COMPOUND in the test samples,"[3]; 40° C./75% RH, initial",16.9 mg
same,pH value after storage,[4],8.5
same,inhibition of platelet aggregation,[5],more than 85%
same,antiplatelet response,[6]; single-dose subcutaneous,"profound, rapid, and dose-related antiplatelet response"
same,safety of single-dose subcutaneous administration,[6],safe
same,blood loss,[7],significantly less blood loss than ticagrelor
